Laboratory results from US6841532B2, “Peptides and their use to ameliorate cell death” (priority 1995, dated 2005).
Entries after “also recorded” stand apart in the source; their conditions may differ. Where no end group is shown, it is not given here.

How the values were obtained:
[1] = test system: Cardiac myocytes from embryonic chick hearts; experiment: Amelioration of ammonium persulfate-induced cell death in cultured cardiac myocytes (Trypan blue exclusion); assay type: cell-based; conditions: 1 mM ammonium persulfate
Description: Cardiac myocytes from embryonic chick hearts were grown in culture using the procedures described in Rabkin, Exper. Cell. Res. 188:262-266, 1990. Briefly, white Leghorn eggs were incubated in an automatic incubator (March Rollex, Calif., USA) for 7 days at 37.8° C. and 87% humidity. Hearts were then isolated under sterile conditions from the 7-day chick embryo. Blood and connective tissue were removed under a dissecting microscope in a solution of balanced salts (DMS8) with the following composition (mM): NaCl 116, KCl 5.4, NaH2PO4 1 and dextrose 5.6. Disaggregation was carried out by 5-minute digestions in 0.005% trypsin (Gibco Laboratories, Burlington, Ontario), 0.1% BSA and 1×10^7 DNAse per mL, DMS8 (Worthington Biochemicals, Frederic, N.J., USA) at 37° C. After three digestions, the digests were diluted 1:5 in culture medium and the cells centrifuged for three minutes at 1000 g and plated.
The cultured cardiac myocytes were incubated with 1 mM ammonium persulfate for 2 hours at 37° C. to induce oxidative damage. Cell viability was assessed by Trypan blue exclusion. Six samples containing cells were then incubated with 0.0, 0.000375, 0.00375, 0.0375, 0.375 and 37.5 μM streptokinase (Hoechts-Roussel Pharmaceuticals), respectively, and 0.0, 0.000246, 0.00246, 0.0246, 0.246 and 24.6 μM plasminogen, respectively (see Table 1), for 1-2 hours at 37° C. and assessed by Trypan blue exclusion.
Control cell samples were treated with 1 mM ammonium persulfate in the absence of streptokinase (STK) and plasminogen under the same conditions.
The results are described in Table 1 in terms of the percent cell death induced by ammonium persulfate. The data represents the mean of six (6) duplicate determinations, none of which differed by more than 5%.
Each of the nineteen (19) resulting fractions was tested for the peptide's ability to ameliorate cell death according to the assay described in Example 1. The data in Table 2 represent the mean of duplicate determinations. None of the determinations differed by more than 5%.
Based on the sequences identified in Example 2, peptides were synthesized using a commercially available automated synthesizer (Applied Biosystems 430 A Peptide Synthesizer), purified by and tested according to the assay described in Example 1 for their ability to ameliorate cell death in cardiac myocytes. The sequences for these peptides were:
Table 3 presents the percentage of dead cells as measured by Trypan blue assessment as described in Example 1.

[2] = test system: Spinal cord cells isolated from embryonic chicks; experiment: Amelioration of ammonium persulfate-induced cell death in spinal cord cells (trypan blue); assay type: cell-based, chick; conditions: 1 mM ammonium persulfate for 1 or 2 hours; 10 μg/ml or 20 μg/ml peptide; versus control
Description: Spinal cord cells isolated from embryonic chicks were grown in culture for 5-7 days. Chick spinal cord cells were cultured as described briefly as follows. Cell cultures were prepared from 7-day chick embryo. Ventral portions of spinal cord were dissected free of meninges and dorsal root ganglia and diced into small pieces in Dulbecco's phosphate-buffered saline (PBS). Tissue fragments were incubated in PBS with 0.25% trypsin and 20 μg/ml DNase for 30 min at 36° C. Trypsin was inactivated by the addition of horse serum and cells were dissociated by gentle pipetting.
Isolated cells were washed, resuspended in medium and plated onto plastic coverslips in petri dishes. The medium consisted of Eagle's minimum essential medium (MEM), 10% fetal bovine serum (FBS), 5 mg/ml D-glucose and 25 μg/ml gentamycin. Cells were grown in an incubator with 5% CO2/95% air at 37° C. and the medium was renewed twice a week. Cells were used for experiment after 14 days.
Both the experimental and control cultures were treated with 1 mM ammonium persulfate for 1 or 2 hours at 37° C. The experimental cultures were treated with either 10 μg/ml or 20 μg/ml of the 20 mer peptide (SEQ ID NO: 6) for the same length of time. The number of dead cells, assayed by trypan blue, in the experimental groups was compared to that in the control group.

M07E = experiment: Serum-deprivation-induced cell death, 3H-thymidine incorporation, M07E; assay type: cell-based, human; conditions: M07E starved 30 hours, 20 μg/ml, then washed, IL-3 for 22 hours; control 2,003 ± 468
Description: (§1) Cells in the latter group were washed free of the 20 mer (SEQ. ID NO. 6), given saturating concentrations of growth factor (5 ng/ml of human interleukin-3) and incubated for an additional 22 hours. After the 22 hours, 1 μCi of ^3H-thymidine (2 Ci/mmol) was added and, after 2 hours, the cellular contents were harvested onto filtermats. Then ^3H-thymidine incorporation was measured using an LKB Betaplate Harvester and liquid scintillation counter. Note the increased viability of cells treated with the 20 mer peptide (SEQ ID NO: 6).

TF-1 = experiment: Serum-deprivation-induced cell death, 3H-thymidine incorporation, TF-1; assay type: cell-based, human; conditions: TF-1 starved 30 hours, 20 μg/ml, then washed, IL-3 for 22 hours; control 14,728 ± 2,825
Description: as §1

[3] = reverse phase HPLC fractions of streptokinase incubated 1:1 with plasminogen

Substance | percentage of dead cells ([1]; Peptide Concentration 5 μM) | percentage of dead cells ([1]; Peptide Concentration 20 μM) | further results
EVTEEEETVPLKThE-AMIDE [Irrelevant #3, reference compound] | 79.5% | 81.1% | 
NFLRGKLKLYTGEACRTGDR [Irrelevant #1, irrelevant peptide utilized as negative control, reference compound] | 77.1% | 67.6% | 
RLILDSRVLERYLLEAKEAE [Irrelevant #2, irrelevant peptide utilized as negative control, reference compound] | 77.4% | 76.1% | 
SVDVEY [6 mer #1] | 51.9% | 36.8% | 
SVDVEYTQFTDFRGKLTKLL [20 mer] | 47.6% | 23.1% | survival of spinal cord cells (number of dead cells, trypan blue) [2]: dramatically enhanced cell survival; also recorded: almost completely prevented cell death; 3H-THYMIDINE COUNTS (COUNTS PER MINUTE) (M07E): 4,282 ± 212 COUNTS PER MINUTE; 3H-THYMIDINE COUNTS (COUNTS PER MINUTE) (TF-1): 32,701 ± 5,565 COUNTS PER MINUTE; percentage of dead cells ([1]; Peptide Concentration 10 μM): 35.4%; percentage of dead cells ([1]; Peptide Concentration 15 μM): 31.6%; percentage of dead cells ([1]; Peptide Concentration 20 μM, listed as 20mer): ~20%
SVDVEYTVQFTPLNPDDD [18 mer] |  | 54.4% | 
SVDVEYTVQFTPLNPDDDFRP [fraction 13] |  |  | Cell Death (%) [1, 3]: 39%
Streptokinase [reference compound] |  |  | Cell Death (%) ([1]; 0.000375 μM streptokinase with 0.000246 μM plasminogen, control 81): 50%; Cell Death (%) ([1]; 0.00375 μM streptokinase with 0.00246 μM plasminogen, control 81): 37%; Cell Death (%) ([1]; 0.0375 μM streptokinase with 0.0246 μM plasminogen, control 81): 29%; Cell Death (%) ([1]; 0.375 μM streptokinase with 0.246 μM plasminogen, control 81): 25%; Cell Death (%) ([1]; 37.5 μM streptokinase with 24.6 μM plasminogen, control 81): 16%
YVDVDT [6 mer #2] | 37.0% | 25.4% | 
YVDVDTNELLK [11 mer] | 38.6% |  | 
YVDVDTNELLKSEQLLTASE [fraction 12] |  |  | Cell Death (%) [1, 3]: 29%
